We go through one compound from ChEMBL document CHEMBL5137044, “Expansion of the S-CN-DABO scaffold to exploit the impact on inhibitory activities against the non-nucleoside HIV-1 reverse transcriptase” (Eur J Med Chem, 2022).

A short description of data set [1]: MRT (0 to infinity) in Sprague-Dawley rat at 10 mg/kg,po measured upto 24 hrs by LC-MS/MS analysis. The format is ADME, organism-based. To be noted: in vivo.
The nature of data set [2]: Fold resistance, ratio of EC50 for antiviral activity against drug-resistant HIV-1 E138K mutant infected in human MT4 cells to EC50 for antiviral activity against […] HIV-1 infected in human MT4 cells. The format is functional.
The test system of data set [3] is Human immunodeficiency virus 1. Briefly: Antiviral activity against drug-resistant HIV-1 E138K mutant infected in human MT4 cells assessed as reduction in virus-induced cytopathic effect incubated for 5 days by MTT assay. The format is functional, organism-based. To be noted: Human immunodeficiency virus 1, E138K mutant, MT4, 120 h.
Data set [4] in a line: Tmax in Sprague-Dawley rat at 10 mg/kg,po measured upto 24 hrs by LC-MS/MS analysis. The format is ADME, organism-based. As to conditions: in vivo.
The nature of data set [5]: AUC (0 to t) in Sprague-Dawley rat at 1 mg/kg,iv measured upto 24 hrs by LC-MS/MS analysis. The format is ADME, organism-based. Also noted: dose 1 mg/kg, time < 24 hrs, route iv. As to conditions: in vivo.
For another data set, the target named is Cytochrome P450 2C19 (Homo sapiens, UniProt P33261). Briefly: Inhibition of CYP2C19 in human liver microsomes using s-mephenytoin as substrate incubated for 15 to 40 mins in presence of NADPH. It is filed as ADME, Microsome. A general note: Microsomes from liver hold many membrane-bound enzymes, among them those of drug oxidation.
The nature of data set [6]: Fold resistance, ratio of EC50 for antiviral activity against drug-resistant HIV-1 Y188L mutant infected in human MT4 cells to EC50 for antiviral activity against […] HIV-1 infected in human MT4 cells. The format is functional.
Data set [7] has as its target Human immunodeficiency virus type 1 reverse transcriptase (Human immunodeficiency virus 1, UniProt Q72547). Briefly: Inhibition of recombinant wild-type p66/p51 HIV-1 reverse transcriptase incubated for 40 mins by picogreen dye-based spectrofluorometric analysis.
A short description of data set [8]: Half life in Sprague-Dawley rat at 10 mg/kg,po measured upto 24 hrs by LC-MS/MS analysis. The format is ADME, organism-based. To be noted: in vivo.
Data set [9] has as its system Human immunodeficiency virus 1. Kind of data set: Antiviral activity against drug-resistant HIV-1 L100I mutant infected in human MT4 cells assessed as reduction in virus-induced cytopathic effect incubated for 5 days by MTT assay. The format is functional, organism-based. To be noted: Human immunodeficiency virus 1, L100I mutant, MT4, 120 h.
A short description of data set [10]: Clearance in Sprague-Dawley rat at 10 mg/kg,po measured upto 24 hrs by LC-MS/MS analysis. It is filed as ADME, organism-based. To be noted: in vivo.
Data set [11] can be described thus: Apparent volume of distribution in Sprague-Dawley rat at 1 mg/kg,iv measured upto 24 hrs by LC-MS/MS analysis. The format is ADME, organism-based. As to conditions: in vivo, read-out: Vz.
A short description of data set [12]: Acute toxicity in healthy mouse assessed as liver damage at 1 g/Kg,IG monitored for 2 weeks by HE staining based assay. It is filed as tissue-based. To be noted: in vivo, po, 1000 mg/kg, 336 h.
The nature of data set [13]: MRT(0 to t) in Sprague-Dawley rat at 1 mg/kg,iv measured upto 24 hrs by LC-MS/MS analysis. To be noted: in vivo. It is filed as ADME, organism-based.
Data set [14] is described as follows: Half life in Sprague-Dawley rat at 1 mg/kg,iv measured upto 24 hrs by LC-MS/MS analysis. The format is ADME, organism-based. As to conditions: in vivo.
Another data set has as its target Cytochrome P450 3A4 (Homo sapiens, UniProt P08684). Briefly: Inhibition of CYP3A4M in human liver microsomes using midazolam as substrate incubated for 15 to 40 mins in presence of NADPH. It is filed as ADME, Microsome.
Data set [15] in a line: Acute toxicity in mouse assessed as mouse death at 1 g/Kg,IG monitored for 2 weeks. To be noted: in vivo, po, 1000 mg/kg, 336 h.

Bounds are passed on as bounds.

Chain of Cytochrome P450 3A4 (P08684 whole entry): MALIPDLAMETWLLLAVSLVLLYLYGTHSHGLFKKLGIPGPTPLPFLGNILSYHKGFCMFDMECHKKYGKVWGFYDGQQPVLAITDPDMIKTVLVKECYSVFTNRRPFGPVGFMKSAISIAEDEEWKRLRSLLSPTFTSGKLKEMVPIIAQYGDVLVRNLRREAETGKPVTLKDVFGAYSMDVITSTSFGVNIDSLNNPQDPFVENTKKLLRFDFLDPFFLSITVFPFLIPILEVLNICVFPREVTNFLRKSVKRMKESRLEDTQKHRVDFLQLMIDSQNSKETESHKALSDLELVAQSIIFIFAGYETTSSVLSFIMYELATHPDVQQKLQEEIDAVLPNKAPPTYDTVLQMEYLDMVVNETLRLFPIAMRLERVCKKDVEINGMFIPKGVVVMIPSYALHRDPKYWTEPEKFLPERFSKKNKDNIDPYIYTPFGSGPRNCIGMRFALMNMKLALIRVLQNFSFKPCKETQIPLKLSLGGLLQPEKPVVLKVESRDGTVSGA
Chain of Cytochrome P450 2C19 (P33261 whole entry): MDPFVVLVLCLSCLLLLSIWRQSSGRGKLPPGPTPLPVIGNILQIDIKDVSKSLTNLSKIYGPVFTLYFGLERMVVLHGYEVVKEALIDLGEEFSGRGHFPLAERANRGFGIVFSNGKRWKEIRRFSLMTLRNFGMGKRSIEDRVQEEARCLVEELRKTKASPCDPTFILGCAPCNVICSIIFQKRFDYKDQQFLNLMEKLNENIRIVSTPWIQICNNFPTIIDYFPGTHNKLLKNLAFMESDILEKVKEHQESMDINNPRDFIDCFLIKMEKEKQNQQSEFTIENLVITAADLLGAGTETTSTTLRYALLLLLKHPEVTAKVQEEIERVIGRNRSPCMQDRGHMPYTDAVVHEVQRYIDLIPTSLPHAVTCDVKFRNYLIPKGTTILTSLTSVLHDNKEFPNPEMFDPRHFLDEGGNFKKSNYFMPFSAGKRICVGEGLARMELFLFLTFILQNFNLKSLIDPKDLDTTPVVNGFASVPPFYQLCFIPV

The term MRT inf denotes a mean duration of stay, worked out from the concentration-time curve. As a reminder, the EC50 is the concentration that produces a half-maximal response. The Tmax is the time from dosing to the highest level. A word on the AUC(0-t): it is the area under the concentration-time curve up to a stated or last time point. High values mean more exposure, low ones less exposure. Usually IC50 stands for the midpoint of a concentration-inhibition curve. Usually half-life stands for the time in which the quantity being followed falls by half. As usually defined, the CL/F is the apparent clearance, not corrected for the fraction that reaches the circulation. For orientation: MRT last means a mean duration of stay, worked out from the concentration-time curve. Regarding `Cc1c(C(C#N)c2c(F)cccc2F)nc(SC(C)C)[nH]c1=O` (configuration not stated), the MRT inf in data set [1] stood at 6.82 h. Moreover, the “Ratio EC50” value in data set [2] worked out at 2; in data set [6], 3319. Moreover, the EC50 in data set [3] is 0.05 µM; in data set [9] it was 1.03 µM. For the same compound, the Tmax in [4] amounted to 3.5 h. The compound further showed an AUC(0-t) at 24 h in [5] of 8280 ng·h/mL. The figures for the IC50 (on Cytochrome P450 2C19; in [7]; at Cytochrome P450 3A4) were 35.3 µM, 0.079 µM and over 50 µM, respectively. Besides, the half-life in [8] was 4.39 h; in data set [14], 4.07 h. In addition, the CL/F in data set [10] is 1.24 mL/min/kg. In addition, the Vd in data set [11] came to 0.764 L/kg. Besides, the Activity result in data set [12] and in data set [15] was “Non-Toxic” in each case. In [13], this compound yielded an MRT last at 24 h of 2.25 h.
